According to publication PMC4904262 (ACS Medicinal Chemistry Letters, 2016):

Legend:
[1] = target: PIM-2 (Homo sapiens, UniProt Q9P1W9); details: 1 µM, ATP at Km
[2] = target: ARG (Homo sapiens, UniProt P42684); details: 1 µM, ATP at Km
[3] = target: ROCK-I (Homo sapiens, UniProt Q13464); details: 1 µM, ATP at Km
[4] = target: […] (Homo sapiens, UniProt P16234); details: 1 µM, ATP at Km
[5] = target: PKCIOTA (Homo sapiens, UniProt P41743); details: 1 µM, ATP at Km
[6] = target: […] (Homo sapiens, UniProt Q13557); details: 1 µM, ATP at Km
[7] = target: HCK (Homo sapiens, UniProt P08631); details: HCK (first listing, page 8); 1 µM; ATP at Km
[8] = target: ROS (Homo sapiens, UniProt P08922); details: 1 µM, ATP at Km
[9] = target: CLK3 (Homo sapiens, UniProt P49761); details: 1 µM, ATP at Km
[10] = target: PKBALPHA (Homo sapiens, UniProt P31749); details: 1 µM, ATP at Km
[11] = target: NEK7 (Homo sapiens, UniProt Q8TDX7); details: 1 µM, ATP at Km
[12] = target: MAPK1 (Homo sapiens, UniProt P27361); details: 1 µM, ATP at Km
[13] = target: NLK (Homo sapiens, UniProt Q9UBE8); details: 1 µM, ATP at Km
[14] = target: CDK7/CYCLINH/MAT1 (Homo sapiens, UniProt P50613); details: 1 µM, ATP at Km
[15] = target: DDR2 (Homo sapiens, UniProt Q16832); details: 1 µM, ATP at Km
[16] = target: PKCBII (Homo sapiens, UniProt P05771); details: 1 µM, ATP at Km
[17] = target: EPHA3 (Homo sapiens, UniProt P29320); details: 1 µM, ATP at Km
[18] = target: PKCZETA (Homo sapiens, UniProt Q05513); details: 1 µM, ATP at Km
[19] = target: AXL (Homo sapiens, UniProt P30530); details: 1 µM, ATP at Km
[20] = target: AURKB (Homo sapiens, UniProt Q96GD4); details: 1 µM, ATP at Km
[21] = target: CAMKIIBETA (Homo sapiens, UniProt Q13554); details: 1 µM, ATP at Km
[22] = target: EEF-2K (Homo sapiens, UniProt O00418); details: 1 µM, ATP at Km
[23] = target: PHKGAMMA2 (Homo sapiens, UniProt P15735); details: 1 µM, ATP at Km
[24] = target: PKCBETAI (Homo sapiens, UniProt P05771); details: 1 µM, ATP at Km
[25] = target: MTOR (Homo sapiens, UniProt P42345); details: 1 µM, ATP at Km
[26] = target: CHK1 (Homo sapiens, UniProt O14757); details: 1 µM, ATP at Km
[27] = target: MST3 (Homo sapiens, UniProt Q9Y6E0); details: 1 µM, ATP at Km
[28] = target: DRAK1 (Homo sapiens, UniProt Q9UEE5); details: 1 µM, ATP at Km
[29] = target: IGF-1R, ACTIVATED (Homo sapiens, UniProt P08069); details: 1 µM, ATP at Km
[30] = target: MET (Homo sapiens, UniProt P08581); details: 1 µM, ATP at Km
[31] = target: EPHA4 (Homo sapiens, UniProt P54764); details: 1 µM, ATP at Km
[32] = target: JAK2 (Homo sapiens, UniProt O60674); details: 1 µM, ATP at Km
[33] = target: TEC ACTIVATED (Homo sapiens, UniProt P42680); details: 1 µM, ATP at Km
[34] = target: EPHB2 (Homo sapiens, UniProt P29323); details: 1 µM, ATP at Km
[35] = target: GCK (Homo sapiens, UniProt Q12851); details: 1 µM, ATP at Km
[36] = target: PLK3 (Homo sapiens, UniProt Q9H4B4); details: 1 µM, ATP at Km
[37] = target: FGR (Homo sapiens, UniProt P09769); details: 1 µM, ATP at Km
[38] = target: TIE2 (Homo sapiens, UniProt Q02763); details: 1 µM, ATP at Km
[39] = target: LKB1 (Homo sapiens, UniProt Q15831); details: 1 µM, ATP at Km
[40] = target: RSK4 (Homo sapiens, UniProt Q9UK32); details: 1 µM, ATP at Km
[41] = target: GRK5 (Homo sapiens, UniProt P34947); details: 1 µM, ATP at Km
[42] = target: EPHB1 (Homo sapiens, UniProt P54762); details: 1 µM, ATP at Km
[43] = target: MST1 (Homo sapiens, UniProt Q13043); details: 1 µM, ATP at Km
[44] = target: CK2ALPHA2 (Homo sapiens, UniProt P19784); details: 1 µM, ATP at Km
CK2ALPHA2, sequence (P19784 whole entry): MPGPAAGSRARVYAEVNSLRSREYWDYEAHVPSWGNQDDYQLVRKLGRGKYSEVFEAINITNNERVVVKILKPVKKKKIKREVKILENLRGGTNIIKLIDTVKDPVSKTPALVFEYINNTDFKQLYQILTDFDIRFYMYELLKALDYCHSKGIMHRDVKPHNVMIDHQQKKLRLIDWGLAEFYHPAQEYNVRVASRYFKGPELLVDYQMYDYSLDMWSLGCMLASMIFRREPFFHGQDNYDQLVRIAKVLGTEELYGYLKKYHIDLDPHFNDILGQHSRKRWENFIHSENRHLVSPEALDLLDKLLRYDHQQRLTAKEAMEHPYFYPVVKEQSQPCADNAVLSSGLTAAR

PKCBETAI, sequence (P05771 whole entry): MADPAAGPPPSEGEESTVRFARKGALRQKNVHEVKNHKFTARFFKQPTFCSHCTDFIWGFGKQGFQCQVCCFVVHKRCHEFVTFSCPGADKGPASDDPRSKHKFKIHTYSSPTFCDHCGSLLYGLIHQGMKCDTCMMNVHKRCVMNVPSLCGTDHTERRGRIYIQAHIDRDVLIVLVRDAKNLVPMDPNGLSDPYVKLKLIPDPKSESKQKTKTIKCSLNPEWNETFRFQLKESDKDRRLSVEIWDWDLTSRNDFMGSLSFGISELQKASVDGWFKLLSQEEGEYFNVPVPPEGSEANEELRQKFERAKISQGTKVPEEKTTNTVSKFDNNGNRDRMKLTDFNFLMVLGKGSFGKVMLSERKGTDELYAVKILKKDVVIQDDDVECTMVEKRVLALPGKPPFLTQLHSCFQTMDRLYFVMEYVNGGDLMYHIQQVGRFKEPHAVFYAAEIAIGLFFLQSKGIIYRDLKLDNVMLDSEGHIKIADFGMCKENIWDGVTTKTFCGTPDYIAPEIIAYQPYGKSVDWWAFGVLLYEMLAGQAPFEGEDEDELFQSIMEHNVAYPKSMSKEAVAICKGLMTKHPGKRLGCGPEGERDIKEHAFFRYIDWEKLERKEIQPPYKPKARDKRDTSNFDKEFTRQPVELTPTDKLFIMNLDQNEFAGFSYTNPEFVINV
GCK, sequence (Q12851 whole entry): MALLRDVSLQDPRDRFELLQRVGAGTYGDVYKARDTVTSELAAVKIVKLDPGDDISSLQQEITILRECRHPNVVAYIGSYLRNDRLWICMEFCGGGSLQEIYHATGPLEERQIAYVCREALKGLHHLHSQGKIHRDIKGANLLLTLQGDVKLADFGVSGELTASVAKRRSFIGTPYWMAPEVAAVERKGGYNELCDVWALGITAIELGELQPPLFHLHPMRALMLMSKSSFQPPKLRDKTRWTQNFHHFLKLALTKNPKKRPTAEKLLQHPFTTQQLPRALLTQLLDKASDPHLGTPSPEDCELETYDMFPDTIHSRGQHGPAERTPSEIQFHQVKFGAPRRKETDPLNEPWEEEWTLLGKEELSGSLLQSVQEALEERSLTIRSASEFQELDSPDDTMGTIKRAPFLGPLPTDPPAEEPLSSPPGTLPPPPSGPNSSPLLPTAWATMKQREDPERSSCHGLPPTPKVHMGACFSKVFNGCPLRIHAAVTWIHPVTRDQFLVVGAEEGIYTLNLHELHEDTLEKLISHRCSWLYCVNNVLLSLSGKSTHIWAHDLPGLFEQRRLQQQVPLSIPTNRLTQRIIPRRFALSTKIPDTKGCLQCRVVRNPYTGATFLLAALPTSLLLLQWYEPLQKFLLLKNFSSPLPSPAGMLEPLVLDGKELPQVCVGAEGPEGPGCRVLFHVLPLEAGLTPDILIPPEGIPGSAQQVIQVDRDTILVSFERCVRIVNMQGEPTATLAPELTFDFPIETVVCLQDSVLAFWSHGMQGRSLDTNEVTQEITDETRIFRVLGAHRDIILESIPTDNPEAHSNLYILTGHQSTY
EPHB2, sequence (P29323 19-1055): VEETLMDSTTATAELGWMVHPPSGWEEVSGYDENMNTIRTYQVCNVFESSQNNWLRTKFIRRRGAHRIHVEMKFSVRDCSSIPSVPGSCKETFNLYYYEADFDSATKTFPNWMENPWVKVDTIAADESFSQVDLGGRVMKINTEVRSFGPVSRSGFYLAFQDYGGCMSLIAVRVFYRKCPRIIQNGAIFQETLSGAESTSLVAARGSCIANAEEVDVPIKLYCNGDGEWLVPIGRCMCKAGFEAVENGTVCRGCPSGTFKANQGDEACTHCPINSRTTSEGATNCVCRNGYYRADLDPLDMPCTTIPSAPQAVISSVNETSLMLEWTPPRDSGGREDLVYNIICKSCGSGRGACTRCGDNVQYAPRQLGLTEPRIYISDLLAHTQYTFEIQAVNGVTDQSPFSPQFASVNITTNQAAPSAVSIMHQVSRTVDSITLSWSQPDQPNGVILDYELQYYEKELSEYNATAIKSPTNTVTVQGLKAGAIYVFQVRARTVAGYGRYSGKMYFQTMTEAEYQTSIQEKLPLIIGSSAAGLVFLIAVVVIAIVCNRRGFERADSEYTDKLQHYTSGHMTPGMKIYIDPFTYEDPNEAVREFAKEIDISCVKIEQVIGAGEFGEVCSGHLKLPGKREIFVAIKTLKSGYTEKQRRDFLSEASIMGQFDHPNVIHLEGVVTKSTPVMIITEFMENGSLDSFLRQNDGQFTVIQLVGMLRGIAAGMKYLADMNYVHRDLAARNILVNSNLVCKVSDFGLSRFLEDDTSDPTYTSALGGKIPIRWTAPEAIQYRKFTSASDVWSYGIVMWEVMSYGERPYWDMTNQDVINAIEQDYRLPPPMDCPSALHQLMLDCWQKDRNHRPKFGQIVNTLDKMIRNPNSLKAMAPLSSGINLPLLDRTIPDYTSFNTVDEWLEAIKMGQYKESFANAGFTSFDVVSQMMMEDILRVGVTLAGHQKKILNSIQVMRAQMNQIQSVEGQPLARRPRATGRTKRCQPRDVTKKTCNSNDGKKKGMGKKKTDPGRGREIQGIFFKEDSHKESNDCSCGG
NEK7, sequence (Q8TDX7 whole entry): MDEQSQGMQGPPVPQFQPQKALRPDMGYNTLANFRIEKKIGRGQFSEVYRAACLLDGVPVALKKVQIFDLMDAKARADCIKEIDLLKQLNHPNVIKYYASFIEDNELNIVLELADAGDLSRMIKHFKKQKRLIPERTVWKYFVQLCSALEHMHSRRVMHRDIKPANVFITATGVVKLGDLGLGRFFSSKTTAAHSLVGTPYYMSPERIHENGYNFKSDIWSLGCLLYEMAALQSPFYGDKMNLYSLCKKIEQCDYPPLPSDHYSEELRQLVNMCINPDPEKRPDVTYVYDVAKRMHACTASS
EPHA4, sequence (P54764 20-986): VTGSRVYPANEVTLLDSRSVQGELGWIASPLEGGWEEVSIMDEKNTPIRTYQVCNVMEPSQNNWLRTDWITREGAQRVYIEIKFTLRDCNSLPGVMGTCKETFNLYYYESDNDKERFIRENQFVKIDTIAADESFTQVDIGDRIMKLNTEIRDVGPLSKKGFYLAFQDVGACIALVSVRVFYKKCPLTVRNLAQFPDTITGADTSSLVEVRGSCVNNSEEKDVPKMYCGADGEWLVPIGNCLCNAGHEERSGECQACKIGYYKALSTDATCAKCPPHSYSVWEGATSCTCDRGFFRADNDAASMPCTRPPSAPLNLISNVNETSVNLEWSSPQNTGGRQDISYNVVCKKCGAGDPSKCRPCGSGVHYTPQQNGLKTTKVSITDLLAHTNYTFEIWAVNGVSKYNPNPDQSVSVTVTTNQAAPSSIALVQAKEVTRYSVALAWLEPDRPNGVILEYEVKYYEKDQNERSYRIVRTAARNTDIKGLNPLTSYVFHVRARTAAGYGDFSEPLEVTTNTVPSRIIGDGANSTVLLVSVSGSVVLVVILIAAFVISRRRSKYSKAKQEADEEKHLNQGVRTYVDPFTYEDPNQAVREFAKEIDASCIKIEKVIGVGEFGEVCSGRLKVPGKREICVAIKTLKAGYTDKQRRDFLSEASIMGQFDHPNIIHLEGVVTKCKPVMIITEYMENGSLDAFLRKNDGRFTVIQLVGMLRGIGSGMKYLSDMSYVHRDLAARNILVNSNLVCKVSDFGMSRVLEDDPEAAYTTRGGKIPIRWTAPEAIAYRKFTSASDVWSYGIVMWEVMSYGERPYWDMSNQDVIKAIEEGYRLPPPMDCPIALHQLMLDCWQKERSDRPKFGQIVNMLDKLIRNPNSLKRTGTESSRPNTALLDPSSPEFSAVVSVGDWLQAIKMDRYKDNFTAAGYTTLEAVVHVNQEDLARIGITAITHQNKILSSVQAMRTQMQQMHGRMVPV
HCK, sequence (P08631 whole entry): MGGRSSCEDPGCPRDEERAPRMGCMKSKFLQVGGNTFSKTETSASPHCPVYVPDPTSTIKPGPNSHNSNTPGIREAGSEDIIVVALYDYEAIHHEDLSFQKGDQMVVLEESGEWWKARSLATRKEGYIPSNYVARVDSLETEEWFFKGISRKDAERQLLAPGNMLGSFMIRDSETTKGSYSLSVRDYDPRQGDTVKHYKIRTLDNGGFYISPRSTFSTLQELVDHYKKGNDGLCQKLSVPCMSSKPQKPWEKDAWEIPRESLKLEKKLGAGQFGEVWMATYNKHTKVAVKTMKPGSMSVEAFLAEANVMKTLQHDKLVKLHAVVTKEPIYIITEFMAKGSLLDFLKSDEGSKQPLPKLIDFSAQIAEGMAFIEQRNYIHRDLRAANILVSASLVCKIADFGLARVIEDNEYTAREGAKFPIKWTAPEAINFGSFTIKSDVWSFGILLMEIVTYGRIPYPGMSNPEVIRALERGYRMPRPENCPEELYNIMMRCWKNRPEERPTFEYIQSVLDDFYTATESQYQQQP
AURKB, sequence (Q96GD4 whole entry): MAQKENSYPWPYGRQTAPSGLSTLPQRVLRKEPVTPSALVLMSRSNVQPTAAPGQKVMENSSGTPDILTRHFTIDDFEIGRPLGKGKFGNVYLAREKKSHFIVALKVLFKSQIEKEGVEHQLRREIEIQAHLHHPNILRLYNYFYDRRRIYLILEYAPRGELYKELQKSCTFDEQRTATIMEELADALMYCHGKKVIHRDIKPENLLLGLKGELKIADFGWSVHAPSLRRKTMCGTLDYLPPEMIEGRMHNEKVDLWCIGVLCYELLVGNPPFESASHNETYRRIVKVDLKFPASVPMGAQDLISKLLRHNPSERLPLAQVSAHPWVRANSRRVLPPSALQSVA

## COC1CN(C(=O)c2ccc3c(N)ncc(-c4ccc(-c5cnn(C)c5)cc4)c3n2)C1 [Compound 51]
[1]
  percentage effect: 16%
[2]
  percentage effect: 11%
[3]
  percentage effect: 32%
[4]
  percentage effect: -3%
[5]
  percentage effect: -16%
[6]
  percentage effect: -10%
[7]
  percentage effect: -6%
[8]
  percentage effect: 14%
[9]
  percentage effect: 2%
[10]
  percentage effect: -11%
[11]
  percentage effect: -6%
[12]
  percentage effect: -13%
[13]
  percentage effect: -3%
[14]
  percentage effect: 20%
[15]
  percentage effect: 6%
[16]
  percentage effect: -4%
[17]
  percentage effect: 10%
[18]
  percentage effect: 4%
[19]
  percentage effect: 27%
[20]
  percentage effect: 0%
[21]
  percentage effect: -10%
[22]
  percentage effect: 2%
[23]
  percentage effect: 10%
[24]
  percentage effect: -1%
[25]
  percentage effect: -12%
[26]
  percentage effect: -8%
[27]
  percentage effect: 7%
[28]
  percentage effect: 1%
[29]
  percentage effect: -18%
[30]
  percentage effect: 22%
[31]
  percentage effect: 2%
[32]
  percentage effect: -2%
[33]
  percentage effect: -18%
[34]
  percentage effect: 7%
[35]
  percentage effect: -26%
[36]
  percentage effect: -9%
[37]
  percentage effect: 19%
[38]
  percentage effect: -6%
[39]
  percentage effect: -5%
[40]
  percentage effect: 9%
[41]
  percentage effect: 6%
[42]
  percentage effect: 13%
[43]
  percentage effect: 9%
[44]
  percentage effect: 0%

## COC1CN(C(=O)c2ccc3c(N)ncc(-c4ccc(-c5cnn(C)c5)cc4)c3c2)C1 [Compound 59]
[1]
  percentage effect: 14%
[2]
  percentage effect: -7%
[3]
  percentage effect: 2%
[4]
  percentage effect: 11%
[5]
  percentage effect: 2%
[6]
  percentage effect: 8%
[7]
  percentage effect: -3%
[8]
  percentage effect: -4%
[9]
  percentage effect: -19%
[10]
  percentage effect: 4%
[11]
  percentage effect: -26%
[12]
  percentage effect: -20%
[13]
  percentage effect: -5%
[14]
  percentage effect: -4%
[15]
  percentage effect: 24%
[16]
  percentage effect: -3%
[17]
  percentage effect: 10%
[18]
  percentage effect: -13%
[19]
  percentage effect: -12%
[20]
  percentage effect: 14%
[21]
  percentage effect: 5%
[22]
  percentage effect: 8%
[23]
  percentage effect: 2%
[24]
  percentage effect: 15%
[25]
  percentage effect: -5%
[26]
  percentage effect: -9%
[27]
  percentage effect: -34%
[28]
  percentage effect: -18%
[29]
  percentage effect: -10%
[30]
  percentage effect: -19%
[31]
  percentage effect: 1%
[32]
  percentage effect: 3%
[33]
  percentage effect: 13%
[34]
  percentage effect: 24%
[35]
  percentage effect: 1%
[36]
  percentage effect: 5%
[37]
  percentage effect: 7%
[38]
  percentage effect: -18%
[39]
  percentage effect: -10%
[40]
  percentage effect: 13%
[41]
  percentage effect: 22%
[42]
  percentage effect: -44%
[43]
  percentage effect: -10%
[44]
  percentage effect: 13%
